According to US10517846B2, “Pharmaceutical compositions for treating acne” (Dr. Reddy's Laboratories Ltd., priority 2016, dated 2019):
In brackets after ≈: the same amount, converted by molar mass.

What was measured:
[1] = cited from earlier work
[2] = Solubility studies for isotretinoin using non-aqueous solvents; format: physicochemical; conditions: organic solvent or mixture
Method: Solubility studies for isotretinoin were carried out using non-aqueous solvents as mentioned in table 1.

[3] = oral; patients with severe acne; cited from earlier work

For `CC1=C(/C=C/C(C)=C/C=C/C(C)=C\C(=O)O)C(C)(C)CCC1` [isotretinoin, (2Z,4E,6E,8E)-3,7-dimethyl-9-(2,6,6-trimethylcyclohex-1-en-1-yl)nona-2,4,6,8-tetraenoic acid], the water solubility [1] is listed as “very low water solubility”, the solubility ([2]; solvent Acetone) is listed as 30 mg/mL (≈ 99.9 mM) and the solubility ([2]; solvent Dichloromethane) is listed as 12 mg/mL (≈ 39.9 mM). It also gave a solubility ([2]; solvent Ethanol) of 10 mg/mL (≈ 33.3 mM), a solubility ([2]; solvent Isopropyl alcohol) of 12 mg/mL (≈ 39.9 mM) and a solubility ([2]; solvent Methanol) of 10 mg/mL (≈ 33.3 mM). The “long-term remission, share of patients” value [3] was “about 80%”.
